From ChEMBL document CHEMBL1156832, “Cationic N-confused porphyrin derivative as a better molecule scaffold for G-quadruplex recognition” (Bioorg Med Chem, 2010)
The source made the active and inactive calls. The calls are words filed in the database; no cut-off is given here.

Key:
Nucleic Acid [1] = experiment: Induction of G-quadruplex stabilization in G4C oligonucleotide assessed as change in DNA melting temperature at [compound/G4C ratio = 1] in pH 7.4 10 mM Tris-HCl, 1 mM EDTA buffer by CD spectroscopy; format: nucleic-acid assay
Nucleic Acid [2] = experiment: Induction of G-quadruplex stabilization in G4C oligonucleotide assessed as change in DNA melting temperature at [compound/G4C ratio = 2] in pH 7.4 10 mM Tris-HCl, 1 mM EDTA buffer by CD spectroscopy; format: nucleic-acid assay
Nucleic Acid [3] = experiment: Induction of G-quadruplex stabilization in G4C oligonucleotide assessed as change in DNA melting temperature at [compound/G4C ratio = 3] in pH 7.4 10 mM Tris-HCl, 1 mM EDTA buffer by CD spectroscopy; format: nucleic-acid assay
Nucleic Acid [4] = experiment: Induction of G-quadruplex stabilization in G4C oligonucleotide assessed as change in DNA melting temperature at [compound/G4C ratio = 4] in pH 7.4 10 mM Tris-HCl, 1 mM EDTA buffer by CD spectroscopy; format: nucleic-acid assay
Nucleic Acid [5] = experiment: Induction of G-quadruplex stabilization in G4C oligonucleotide assessed as change in DNA melting temperature at [compound/G4C ratio = 5] in pH 7.4 10 mM Tris-HCl, 1 mM EDTA buffer by CD spectroscopy; format: nucleic-acid assay
Nucleic Acid [6] = experiment: Binding affinity to human bcl2 promoter G-quadruplex sequence by surface plasmon resonance spectroscopy; format: nucleic-acid assay
Nucleic Acid [7] = experiment: Binding affinity to human c-myc promoter G-quadruplex sequence by surface plasmon resonance spectroscopy; format: nucleic-acid assay
Nucleic Acid [8] = experiment: Binding affinity to human telomeric G-quadruplex sequence by surface plasmon resonance spectroscopy; format: nucleic-acid assay
Nucleic Acid [9] = experiment: Binding affinity to dsDNA by surface plasmon resonance spectroscopy; format: nucleic-acid assay
Nucleic Acid [10] = experiment: Selectivity for human bcl2 promoter G-quadruplex sequence over double stranded DNA by surface plasmon resonance spectroscopy; format: nucleic-acid assay
Nucleic Acid [11] = experiment: Selectivity for human c-myc promoter G-quadruplex sequence over double stranded DNA by surface plasmon resonance spectroscopy; format: nucleic-acid assay
Nucleic Acid [12] = experiment: Selectivity for human telomeric G-quadruplex sequence over double stranded DNA by surface plasmon resonance spectroscopy; format: nucleic-acid assay
Nucleic Acid [13] = experiment: Induction of G-quadruplex stabilization in G4C oligonucleotide in pH 7.4 10 mM Tris-HCl, 1 mM EDTA buffer by CD spectroscopy; format: nucleic-acid assay
Nucleic Acid [14] = experiment: Induction of structural transition from antiparallel to the mixed-type hybrid G-quadruplex structure in human telomeric sequence (T2AG3)4 by CD spectroscopy; format: nucleic-acid assay
Nucleic Acid [15] = experiment: Binding affinity to F21T G-quadruplex DNA at 2.5 uM in presence of competitor dsDNA by competitive FRET melting assay; format: nucleic-acid assay
Nucleic Acid [16] = experiment: Induction of G-quadruplex stabilization in HT4 oligonucleotide assessed as inhibition of DNA synthesis by Taq DNA polymerase stop assay

Row | SMILES | ΔTm (Nucleic Acid [1]) [°C] | ΔTm (Nucleic Acid [2]) [°C] | ΔTm (Nucleic Acid [3]) [°C] | ΔTm (Nucleic Acid [4]) [°C] | ΔTm (Nucleic Acid [5]) [°C] | KA (Nucleic Acid [6]) [×10⁷ /M] | KA (Nucleic Acid [7]) | KA (Nucleic Acid [8]) | KA (Nucleic Acid [9]) | Selectivity ratio (Nucleic Acid [10]) | Selectivity ratio (Nucleic Acid [11]) | Selectivity ratio (Nucleic Acid [12]) | Activity (Nucleic Acid [13]) | Activity (Nucleic Acid [14]) | Activity (Nucleic Acid [15]) | Activity (Nucleic Acid [16])
1 | C[n+]1ccc(-c2c3nc(c(-c4cc[n+](C)cc4)c4ccc([nH]4)c(-c4cc[n+](C)cc4)c4ccc([nH]4)c(-c4cc[n+](C)cc4)c4nc2C=C4)C=C3)cc1 | 4.2 | 7.5 | 9.6 | 11.2 | 10 | 3.09 | 1.01 ×10⁸ /M | 4.65 ×10⁷ /M | 3.62 ×10⁶ /M | 9 | 28 | 13 |  |  |  | 
2 | C1=Cc2nc1c(-c1ccc(C[n+]3ccccc3)cc1)c1nc(c(-c3ccc(C[n+]4ccccc4)cc3)c3ccc([nH]3)c(-c3ccc(C[n+]4ccccc4)cc3)c3ccc([nH]3)c2-c2ccc(C[n+]3ccccc3)cc2)C=C1 | 2.2 | 3.3 | 5 | 6.5 | 7.6 | 1.74 | 5.82 ×10⁷ /M | 2.37 ×10⁷ /M | 6.85 ×10⁵ /M | 25 | 85 | 34 | Active |  |  | 
3 | C1=C/C2=C(\c3ccc(C[n+]4ccccc4)cc3)c3c[nH]c(c3)/C(c3ccc(C[n+]4ccccc4)cc3)=C3/C=CC(=N3)/C(c3ccc(C[n+]4ccccc4)cc3)=c3/cc/c([nH]3)=C(\c3ccc(C[n+]4ccccc4)cc3)C1=N2 | 3.8 | 6.6 | 8.3 | 9.2 | 9.3 | 1.42 | 7.54 ×10⁶ /M | 5.32 ×10⁶ /M | 1.32 ×10⁵ /M | 108 | 57 | 40 |  | Active | Active | Dose-dependent effect
